Experiments:
PbdA R84M = target: T1, PbdA R84M (Rhodococcus jostii, UniProt Q0SCI3, R82M); assay: Substrate binding to PbdA R84M variant by spectral titration; parameters: species or system Rhodococcus jostii RHA1
T1 construct: hexaHis (N, cleaved yes); made in house; host or cells: PbdA variant: E. coli BL-21 λ (DE3); PbdB: Rhodococcus jostii RHA1
Experimental: UV-visible spectroscopy was conducted with a Cary 60 spectrophotometer equipped with a thermostatted cuvette holder at 25 °C. Scans of purified proteins diluted in 20 mM Mops, I = 0.1 M, pH 7.2 were taken between 250 and 700 nm. Heme concentration was calculated as described previously ([35]). Carbon monoxide binding was determined by reduction of PbdA diluted in 20 mM Mops, I = 0.1 M, pH 7.2 as above by a few grains of […]. CO was bubbled into the reduced enzyme for approximately 60 s at a rate of one bubble per second. Dissociation constants (Kd) were determined by titration of ligands diluted into enzyme buffer from 1 M stocks prepared in dimethyl sulfoxide into PbdA diluted in 20 mM Mops, I = 0.1 M, pH 7.2. Spectra take upon addition of substrate were subtracted from the spectrum of the enzyme, and peak-to-trough distance was plotted by ligand concentration. Kd values were determined by fitting a hyperbolic equation to the data as described previously ([23], [36]). The proportion of high-spin heme iron was determined using the approximate peak-to-trough extinction coefficient (ε ≈ 100 mM^−1 cm^−1) ([36]).

PbdA = target: T2, PbdA (Rhodococcus jostii, UniProt Q0SCI3)
T2 sequence (Q0SCI3 1-400): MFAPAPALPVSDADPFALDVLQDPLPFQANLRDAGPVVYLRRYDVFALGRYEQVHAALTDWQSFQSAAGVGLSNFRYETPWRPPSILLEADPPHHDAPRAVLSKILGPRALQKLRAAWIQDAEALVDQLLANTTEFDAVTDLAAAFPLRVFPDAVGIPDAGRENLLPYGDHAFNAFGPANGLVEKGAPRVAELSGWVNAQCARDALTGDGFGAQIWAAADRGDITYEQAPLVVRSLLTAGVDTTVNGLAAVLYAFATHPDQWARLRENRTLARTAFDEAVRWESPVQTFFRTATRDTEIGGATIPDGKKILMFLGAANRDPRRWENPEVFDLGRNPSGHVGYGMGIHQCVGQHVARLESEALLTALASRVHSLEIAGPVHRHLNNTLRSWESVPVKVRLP
Experimental: We then measured coupling under optimum conditions for other substrates. […] Finally, we measured the apparent steady-state kinetic parameters of the PbdA reaction under conditions of maximal coupling (Fig. S4).
(§1) For activity measurements 0.25 to 1 μM of PbdA and PbdB were combined in a 200 μl cuvette in 20 mM Mops, pH 7.2 with substrate diluted in the same buffer. NADH was added to 350 μM to initiate the reaction. For HPLC analysis, enzymatic reactions were acidified by adding acetic acid to 10% final concentration, centrifuged (16,000×g for 10 min), and filtered through a 0.2 μm polytetrafluoroethylene membrane. Samples were run over a Luna 5 μm C18(2) 100 Å 150 × 3 mm column (Phenomenex) at 0.7 ml min^−1 by a Waters 2695 separation HPLC module. Samples were eluted with a 16.8 ml linear gradient from 1% methanol plus 0.1% formic acid in water to 100% methanol plus 0.1% formic acid and monitored at 280 nm with a Waters 2996 photodiode array detector. Concentrations were determined by interpolation on a standard curve of 0 to 1 mM of authentic standard. NADH concentration was measured by absorbance at 340 nm, ε = 6.22 mM^-1 cm^-1. Coupling was calculated from the ratio of rate of aromatic turnover, as determined by HPLC, and the rate of NADH oxidation, determined spectroscopically. Buffer ionic strength was adjusted by addition of NaCl, as appropriate. Apparent steady-state kinetic parameters were calculated by fitting Michaelis–Menten equations to initial velocity of reactions at various concentrations of aromatic substrate (LEONORA).

PbdA S237A = target: T3, PbdA S237A (Rhodococcus jostii, UniProt Q0SCI3, S235A); assay: Activity and coupling assay of PbdA S237A variant with PbdB; format: biochemical, Rhodococcus jostii RHA1
T3 construct: hexaHis (N, cleaved yes); made in house; host or cells: PbdA variant: E. coli BL-21 λ (DE3); PbdB: Rhodococcus jostii RHA1
T3 sequence (Q0SCI3 entry or part of it S235A): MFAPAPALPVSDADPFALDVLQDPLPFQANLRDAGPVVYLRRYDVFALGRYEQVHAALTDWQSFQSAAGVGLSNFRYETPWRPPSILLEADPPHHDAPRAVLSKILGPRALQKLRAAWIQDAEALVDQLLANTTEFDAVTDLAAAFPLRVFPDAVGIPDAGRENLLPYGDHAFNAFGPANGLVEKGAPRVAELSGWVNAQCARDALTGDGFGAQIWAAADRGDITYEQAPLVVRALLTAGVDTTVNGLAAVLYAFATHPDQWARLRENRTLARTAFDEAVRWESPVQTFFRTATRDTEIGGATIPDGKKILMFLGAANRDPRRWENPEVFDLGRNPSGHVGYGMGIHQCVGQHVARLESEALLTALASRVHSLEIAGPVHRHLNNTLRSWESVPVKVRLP
Experimental: as §1
^aExperiments were performed using air-saturated MOPS (I = 0.1 M), pH 7.2, at 25 °C. The rate of aromatic substrate turnover was based on the appearance of O-demethylated product. Standard deviation is shown in parentheses.

T1 sequence (Q0SCI3 entry or part of it R82M): as the sequence (Q0SCI3 entry or part of it S235A) above, with R82M, A235S counted along it

With `COc1ccc(C(=O)O)cc1` [p-MBA, p-methoxybenzoate] the Kd (PbdA R84M) was 36 µM, the “ΔG°” value (PbdA R84M; R84M variant, binding energy) was -6.1 kcal/mol and the “ΔΔG°” value (PbdA R84M; R84M variant, comparison of ΔG° of variant to wild type) was 1.3 kcal/mol. The “kcat (apparent)” value (PbdA; WT PbdA with PbdB, air-saturated Mops (I = 0.1 M), pH 7.2, 25 °C, SD in parentheses) was 0.37 (0.02) s^−1, the Specific activity (PbdA; WT PbdA, O-demethylation, SD in brackets) was 2700 (100) U μg P450^-1 and the NADH depletion rate (PbdA; WT PbdAB, air-saturated MOPS (I = 0.1 M), pH 7.2, 25 °C, SD in parentheses) was 2700 (100) U mg P450^-1. The “Rate of Aromatic turnover” value (PbdA; WT PbdAB, appearance of O-demethylated product (disappearance of p-EB), SD in parentheses) was 2700 (200) U mg P450^-1, the Coupling (PbdA; WT PbdAB, ratio of aromatic turnover rate to NADH oxidation rate) was 100 (3) % and the Km (PbdA; read-out: KM (apparent), WT PbdA with PbdB, air-saturated Mops (I = 0.1 M), pH 7.2, 25 °C, SD in parentheses) was 18 µM. For the same compound, the Coupling (PbdA S237A) was 80 (2) %, the Specific activity (PbdA S237A; O-demethylation) was 2600 (400) U μg P450^-1 and the NADH depletion rate (PbdA S237A; air-saturated MOPS (I = 0.1 M), pH 7.2, 25 °C) was 3600 (600) U mg P450^-1. The “Rate of Aromatic turnover” value (PbdA S237A; appearance of O-demethylated product) was 2600 (400) U mg P450^-1.

Reference: paper PMC11530827, “Characterization of a cytochrome P450 that catalyzes the O-demethylation of lignin-derived benzoates” (The Journal of Biological Chemistry, 2024)
